This is an account of results in US20100022491A1, “4-HYDROXY-2-OXO-2,3-DIHYDRO-1,3-BENZOTHIAZOL-7YL COMPOUNDS FOR MODULATION OF B2-ADRENORECEPTOR ACTIVITY” (ASTRAZENECA AB, priority 2006, published 2010).

This assay has as its target T1, Adrenergic β2 (Homo sapiens, UniProt P07550).
T1 construct: Adherent H292 cells were removed from tissue culture flasks; endogenous in cells; host or cells: H292 cells
Kind of assay: Adrenergic β2 mediated cAMP production in H292 cells. The settings on record: for EC50: H292 cells, cAMP by AlphaScreen, 60 minutes at room temperature, rolipram 300 μM, read-out: β2 pEC50 (converted); for β2 Int Act: Intrinsic Activity as a fraction relative to the maximum activity determined for formoterol. It is filed as cell-based. Put shortly:
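cAMP accumulation in adherent H292 cells, measured by AlphaScreen and calibrated with cAMP standards. Compounds incubated 60 min at room temperature after 10 min rolipram (final 300 μM; vehicle 1.6% DMSO). pEC50 and intrinsic activity, as a fraction of formoterol's maximum, from four-parameter logistic fit.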

Structures are written as SMILES. Structures can show the parent of a compound that is named as a salt.

T1 sequence (P07550 whole entry): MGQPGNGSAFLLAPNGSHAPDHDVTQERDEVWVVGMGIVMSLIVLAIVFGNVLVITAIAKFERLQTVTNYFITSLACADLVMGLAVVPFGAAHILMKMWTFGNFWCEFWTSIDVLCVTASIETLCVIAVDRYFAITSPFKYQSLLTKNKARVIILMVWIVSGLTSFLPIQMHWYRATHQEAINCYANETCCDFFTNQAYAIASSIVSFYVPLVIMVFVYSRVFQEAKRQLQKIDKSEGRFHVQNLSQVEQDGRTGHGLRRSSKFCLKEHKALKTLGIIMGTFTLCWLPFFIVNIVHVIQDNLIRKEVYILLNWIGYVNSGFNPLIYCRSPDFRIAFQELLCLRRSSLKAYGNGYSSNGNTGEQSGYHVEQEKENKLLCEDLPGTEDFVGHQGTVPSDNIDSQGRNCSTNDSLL

Turning to `O=C(CCNCCc1ccc(F)c(F)c1)N(CCNCCc1ccc(O)c2[nH]c(=O)sc12)C1CCCCCC1` [Example 53, N^1-Cycloheptyl-N^1-[2-(3,4-difluorophenyl)ethyl]-N^1-(2-{[2-(4-hydroxy-2-oxo-2,3-dihydro-1,3-benzothiazol-7-yl)ethyl]amino}ethyl)-β-alaninamide bis-trifluoroacetic acid salt], the EC50 is 10 nM and the “β2 Int Act” value was 0.74.

For `O=C(CCNCCc1cccc(OC(F)F)c1)N(CCNCCc1ccc(O)c2[nH]c(=O)sc12)C1CCCCCC1` [Example 54, N-Cycloheptyl-N^3-{2-[3-(difluoromethoxy)phenyl]ethyl}-N^1-(2-{[2-(4-hydroxy-2-oxo-2,3-dihydro-1,3-benzothiazol-7-yl)ethyl]amino}ethyl)-β-alaninamide bis-trifluoroacetic acid salt], the EC50 is 10 nM and the “β2 Int Act” value is 0.69.

In the case of `O=C(CCNCCc1ccc(F)cc1F)N(CCNCCc1ccc(O)c2[nH]c(=O)sc12)C1CCCCCC1` [Example 55, N^1-Cycloheptyl-N^3-[2-(2,4-difluorophenyl)ethyl]-N^1-(2-{[2-(4-hydroxy-2-oxo-2,3-dihydro-1,3-benzothiazol-7-yl)ethyl]amino}ethyl)-β-alaninamide bis-trifluoroacetic acid salt], the EC50 is 10 nM and the “β2 Int Act” value came out at 0.81.

For `O=C(CCNCCc1cccc(F)c1F)N(CCNCCc1ccc(O)c2[nH]c(=O)sc12)C1CCCCCC1` [Example 56, N^1-Cycloheptyl-N^3-[2-(2,3-difluorophenyl)ethyl]-N^1-(2-{[2-(4-hydroxy-2-oxo-2,3-dihydro-1,3-benzothiazol-7-yl)ethyl]amino}ethyl)-β-alaninamide bis-trifluoroacetic acid salt], the EC50 is 5.01 nM and the “β2 Int Act” value was 0.86.

With `O=C(CCNCCc1ccc(F)cc1Cl)N(CCNCCc1ccc(O)c2[nH]c(=O)sc12)C1CCCCCC1` [Example 57, N^3-[2-(2-Chloro-4-fluorophenyl)ethyl]-N^1-cycloheptyl-N^1-(2-{[2-(4-hydroxy-2-oxo-2,3-dihydro-1,3-benzothiazol-7-yl)ethyl]amino}ethyl)-β-alaninamide bis-trifluoroacetic acid salt], the EC50 was 20 nM and the “β2 Int Act” value came to 0.72.

Regarding `O=C(CCNCCc1cc(F)cc(F)c1)N(CCNCCc1ccc(O)c2[nH]c(=O)sc12)C1CCCCCC1` [Example 58, N^1-Cycloheptyl-N^3-[2-(3,5-difluorophenyl)ethyl]-N^1-(2-{[2-(4-hydroxy-2-oxo-2,3-dihydro-1,3-benzothiazol-7-yl)ethyl]amino}ethyl)-β-alaninamide bis-trifluoroacetic acid salt], the EC50 was 3.98 nM and the “β2 Int Act” value was 0.84.

Turning to `O=C(CCNCCc1ccccc1)N(CCNCCc1ccc(O)c2[nH]c(=O)sc12)CC12CC3CC(CC(C3)C1)C2` [Example 59, N^1-(1-Adamantylmethyl)-N^1-(2-{[2-(4-hydroxy-2-oxo-2,3-dihydro-1,3-benzothiazol-7-yl)ethyl]amino}ethyl)-N^3-(2-phenylethyl)-β-alaninamide bis-trifluoroacetic acid salt], the EC50 is 5.01 nM and the “β2 Int Act” value is reported as 0.85.

Take `O=C(CCNCCc1cccc(F)c1)N(CCNCCc1ccc(O)c2[nH]c(=O)sc12)CC12CC3CC(CC(C3)C1)C2` [Example 60, N^1-(1-Adamantylmethyl)-N^3-[2-(3-fluorophenyl)ethyl]-N^1-(2-{[2-(4-hydroxy-2-oxo-2,3-dihydro-1,3-benzothiazol-7-yl)ethyl]amino}ethyl)-β-alaninamide bis-trifluoroacetic acid salt]: the EC50 is 20 nM and the “β2 Int Act” value amounted to 0.76.

Take `O=C(CCNCCc1ccc(F)cc1)N(CCNCCc1ccc(O)c2[nH]c(=O)sc12)CC12CC3CC(CC(C3)C1)C2` [Example 61, N^1-(1-Adamantylmethyl)-N^3-[2-(4-fluorophenyl)ethyl]-N^1-(2-{[2-(4-hydroxy-2-oxo-2,3-dihydro-1,3-benzothiazol-7-yl)ethyl]amino}ethyl)-β-alaninamide bis-trifluoroacetic acid salt]: the EC50 was 10 nM and the “β2 Int Act” value turned out to be 0.79.

Take `O=C(CCNCCc1ccccc1)N(CCNCCc1ccc(O)c2[nH]c(=O)sc12)C1CCSCC1` [Example 62, N-(2-{[2-(4-Hydroxy-2-oxo-2,3-dihydro-1,3-benzothiazol-7-yl)ethyl]amino}ethyl)-N^3-(2-phenylethyl)-N^1-(tetrahydro-2H-thiopyran-4-yl)-β-alaninamide bis-trifluoroacetic acid salt]: the EC50 is 6.31 nM and the “β2 Int Act” value amounted to 0.87.

Take `CCCC(CCC)N(CCNCCc1ccc(O)c2[nH]c(=O)sc12)C(=O)CCNCCc1cccc(F)c1` [Example 63, N^3-[2-(3-Fluorophenyl)ethyl]-N^1-(2-{[2-(4-hydroxy-2-oxo-2,3-dihydro-1,3-benzothiazol-7-yl)ethyl]amino}ethyl)-N^1-(1-propylbutyl)-β-alaninamide bis-trifluoroacetic acid salt]: the EC50 was 79.4 nM and the “β2 Int Act” value was 0.93.

With `CCCC(CCC)N(CCNCCc1ccc(O)c2[nH]c(=O)sc12)C(=O)CCNCCc1ccc(F)cc1` [Example 64, N^3-[2-(4-Fluorophenyl)ethyl]-N^1-(2-{[2-(4-hydroxy-2-oxo-2,3-dihydro-1,3-benzothiazol-7-yl)ethyl]amino}ethyl)-N^1-(1-propylbutyl)-β-alaninamide bis-trifluoroacetic acid salt], the EC50 is 316 nM and the “β2 Int Act” value is on record as 0.70.

On to `CC(C)(CO)CN(CCNCCc1ccc(O)c2[nH]c(=O)sc12)C(=O)CCNCCc1ccccc1Cl` [Example 65, N^3-[2-(2-Chlorophenyl)ethyl]-N^1-(3-hydroxy-2,2-dimethylpropyl)-N^1-(2-{[2-(4-hydroxy-2-oxo-2,3-dihydro-1,3-benzothiazol-7-yl)ethyl]amino}ethyl)-β-alaninamide bis-trifluoroacetic acid salt], for which the EC50 is 12.6 nM and the “β2 Int Act” value is 0.59.

For `CC(C)(CO)CN(CCNCCc1ccc(O)c2[nH]c(=O)sc12)C(=O)CCNCCc1cccc(Cl)c1` [Example 66, N^3-[2-(3-Chlorophenyl)ethyl]-N^1-(3-hydroxy-2,2-dimethylpropyl)-N^1-(2-{[2-(4-hydroxy-2-oxo-2,3-dihydro-1,3-benzothiazol-7-yl)ethyl]amino}ethyl)-β-alaninamide bis-trifluoroacetic acid salt], the EC50 is 12.6 nM and the “β2 Int Act” value is reported as 0.59.

On to `CC(C)(CO)CN(CCNCCc1ccc(O)c2[nH]c(=O)sc12)C(=O)CCNCCc1cccc(Cl)c1Cl` [Example 67, N^3-[2-(2,3-Dichlorophenyl)ethyl]-N^1-(3-hydroxy-2,2-dimethylpropyl)-N^1-(2-{[2-(4-hydroxy-2-oxo-2,3-dihydro-1,3-benzothiazol-7-yl)ethyl]amino}ethyl)-β-alaninamide bis-trifluoroacetic acid salt], for which the EC50 was 20 nM and the “β2 Int Act” value came to 0.70.

Turning to `COc1ccc(CCNCCC(=O)N(CCNCCc2ccc(O)c3[nH]c(=O)sc23)C2CCCCC2)cc1` [Example 68, N^1-Cyclohexyl-N^1-(2-{[2-(4-hydroxy-2-oxo-2,3-dihydro-1,3-benzothiazol-7-yl)ethyl]amino}ethyl)-N^3-[2-(4-methoxyphenyl)ethyl]-β-alaninamide bis-trifluoroacetic acid salt], the EC50 is 10 nM and the “β2 Int Act” value is listed as 0.68.

For the compound `NS(=O)(=O)c1ccc(CCNCCC(=O)N(CCNCCc2ccc(O)c3[nH]c(=O)sc23)C2CCCCC2)cc1` [Example 69, N^3-{2-[4-(Aminosulfonyl)phenyl]ethyl}-N^1-cyclohexyl-N^1-(2-{[2-(4-hydroxy-2-oxo-2,3-dihydro-1,3-benzothiazol-7-yl)ethyl]amino}ethyl)-β-alaninamide bis-trifluoroacetic acid salt], the EC50 was 2 nM and the “β2 Int Act” value is 0.82.

As to `O=C(CCNCCc1cccc(O)c1)N(CCNCCc1ccc(O)c2[nH]c(=O)sc12)C1CCCCC1` [Example 71, N^1-Cyclohexyl-N^1-(2-{[2-(4-hydroxy-2-oxo-2,3-dihydro-1,3-benzothiazol-7-yl)ethyl]amino}ethyl)-N^3-[2-(3-hydroxyphenyl)ethyl]-β-alaninamide bis-trifluoroacetic acid salt], the EC50 was 0.398 nM and the “β2 Int Act” value is 0.97.

As for `O=C(CCNCCc1ccc(Cl)s1)N(CCNCCc1ccc(O)c2[nH]c(=O)sc12)C1CCCCC1` [Example 72, N^3-[2-(5-Chloro-2-thienyl)ethyl]-N^1-cyclohexyl-N^1-(2-{[2-(4-hydroxy-2-oxo-2,3-dihydro-1,3-benzothiazol-7-yl)ethyl]amino}ethyl)-β-alaninamide bis-trifluoroacetic acid salt], the EC50 is 3.98 nM and the “β2 Int Act” value was found to be 0.89.

For the compound `O=C(CCNCCc1ccc(F)c(F)c1)N(CCNCCc1ccc(O)c2[nH]c(=O)sc12)C1CCCCC1` [Example 73, N^1-Cyclohexyl-N^3-[2-(3,4-difluorophenyl)ethyl]-N^1-(2-{[2-(4-hydroxy-2-oxo-2,3-dihydro-1,3-benzothiazol-7-yl)ethyl]amino}ethyl)-β-alaninamide bis-trifluoroacetic acid salt], the EC50 was 5.01 nM and the “β2 Int Act” value was 0.85.

For the compound `O=C(CCNC[C@@H](O)c1ccccc1)N(CCNCCc1ccc(O)c2[nH]c(=O)sc12)C1CCCCC1` [Example 74, N^1-Cyclohexyl-N^1-(2-{[2-(4-hydroxy-2-oxo-2,3-dihydro-1,3-benzothiazol-7-yl)ethyl]amino}ethyl)-N^3-[(2S)-2-hydroxy-2-phenylethyl]-β-alaninamide bis-trifluoroacetic acid salt], the EC50 is 12.6 nM and the “β2 Int Act” value was found to be 0.79.
